Reference: patent US6936607B2, “2,4,6-Triaminopyrimidines for the treatment of depression and/or anxiety” (H. Lunobeck A/S, priority 2002, dated 2005)

Molecular target: T1, human GalR3 receptor (Homo sapiens, UniProt O60755)
T1 construct: expressed in transfected cells; host or cells: mouse fibroblast LM(tk-) cells, stably transfected; membranes
T1 sequence (O60755 1-368): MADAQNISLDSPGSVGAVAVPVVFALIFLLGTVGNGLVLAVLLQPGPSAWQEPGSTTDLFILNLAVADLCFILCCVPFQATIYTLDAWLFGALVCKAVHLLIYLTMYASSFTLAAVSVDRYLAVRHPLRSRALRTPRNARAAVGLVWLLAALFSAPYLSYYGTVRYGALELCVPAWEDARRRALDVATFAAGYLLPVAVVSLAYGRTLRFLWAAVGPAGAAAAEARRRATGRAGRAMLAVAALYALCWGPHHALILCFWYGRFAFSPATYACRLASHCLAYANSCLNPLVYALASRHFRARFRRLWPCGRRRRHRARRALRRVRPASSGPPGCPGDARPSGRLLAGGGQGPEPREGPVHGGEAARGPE
Test: Radioligand binding assay at cloned human GalR3 receptor
Details: Binding Data; membranes from LM(tk-) cells stably transfected with the human GalR3 receptor
Procedure: LM(tk-) cells were stably transfected with the human GalR3 receptor. cDNAs for the human and rat GalR3 receptors were transfected with a G-418 resistant gene into the mouse fibroblast LM(tk-) cell line by a calcium phosphate transfection method (Cullen, 1987). Membranes were harvested from stably transfected LM(tk-) cells. Adherent cells were washed twice in ice-cold phosphate buffered saline (138 mM NaCl, 8.1 mM Na2HPO4, 2.5 mM KCl, 1.2 mM KH2PO4, 0.9 mM CaCl2, 0.5 mM MgCl2, pH 7.4) and lysed by sonication in ice-cold sonication buffer (20 mM Tris-HCl, 5 mM EDTA, pH 7.7). Large particles and debris were cleared by low speed centrifugation (200×g, 5 min, 4° C.). Membranes were collected from the supernatant fraction by centrifugation (32,000×g, 18 min, 4° C.), washed with ice-cold hypotonic buffer, and collected again by centrifugation (32,000×g, 18 min, 4° C.). The final membrane pellet was resuspended by sonication into a small volume of ice-cold binding buffer (˜1 ml for every 5 plates: 10 mM NaCl, 20 mM HEPES, 0.22 mM KH2PO4, 1.26 mM CaCl2, 0.81 mM MgSO4, pH 7.4). Protein concentration was measured by the Bradford method (Bradford, 1976) using Bio-Rad Reagent, with bovine serum albumin as a standard. Membranes were held on ice for up to one hour and used fresh, or flash frozen and stored in liquid nitrogen. Membranes were prepared similarly from CHO cells. The methods to obtain the cDNA of the receptors, express said receptors in heterologous systems, and carry out assays to determine binding affinity are described as follows. Binding assays were performed according to the following published method: human GALR3 (PCT International Publication No. WO 02/060392).

Ki [nM]	SMILES
118	Cc1ccc(Nc2cc(N(C)C)nc(N3CCN(c4ccccc4F)CC3)n2)cc1C [Example 19, N^4-(3,4-DIMETHYLPHENYL)-2-[4-(2-FLUOROPHENYL)-1-PIPERAZINYL]-N^6,N^6-DIMETHYL-4,6-PYRIMIDINEDIAMINE]
34	CN(C)c1cc(Nc2ccc(Cl)c(Cl)c2)nc(N2CCN(c3cccc(Cl)c3)CC2)n1 [Example 16, 2-[4-(3-CHLOROPHENYL)-1-PIPERAZINYL]-N^4-(3,4-DICHLOROPHENYL)-N^6,N^6-DIMETHYL-4,6-PYRIMIDINEDIAMINE]
23	CN(C)c1cc(Nc2cccc(OCc3ccccc3)c2)nc(N2CCCCC2)n1 [Example 36, N^4-[3-(BENZYLOXY)PHENYL]-N^6,N^6-DIMETHYL-2-(1-PIPERIDINYL)-4,6-PYRIMIDINEDIAMINE]
117	Cc1ccc(Nc2cc(N(C)C)nc(N3CCN(c4ccccc4F)CC3)n2)cc1 [Example 5, 2-[4-(2-FLUOROPHENYL)-1-PIPERAZINYL]-N^4,N^4-DIMETHYL-N^6-(4-METHYLPHENYL)-4,6-PYRIMIDINEDIAMINE]
117	Cc1ccc(Nc2cc(N3CCN(c4ncccn4)CC3)nc(N3C[C@@H](C)O[C@@H](C)C3)n2)cc1 [Example 52, 2-(CIS-2,6-DIMETHYLMORPHOLINYL)-N-(4-METHYLPHENYL)-6-[4-(2-PYRIMIDINYL)-1-PIPERAZINYL]-4-PYRIMIDINAMINE]
59	CN(C)c1cc(Nc2cccc(OCc3ccccc3)c2)nc(N2CCCC2)n1 [Example 37, N^4-[3-(BENZYLOXY)PHENYL]-N^6,N^6-DIMETHYL-2-(1-PYRROLIDINYL)-4,6-PYRIMIDINEDIAMINE]
34	CN(C)c1cc(Nc2ccc3c(c2)CCC3)nc(N2CCN(c3cccc(Cl)c3)CC2)n1 [Example 2, 2-[4-(3-CHLOROPHENYL)-1-PIPERAZINYL]-N^4-(2,3-DIHYDRO-1H-INDEN-5-YL)-N^6,N^6-DIMETHYL-4,6-PYRIMIDINEDIAMINE]
20	CN(C)c1cc(Nc2cccc(OCc3ccccc3)c2)nc(N2CCN(c3ccccc3F)CC2)n1 [Example 24, N^4-[3-(BENZYLOXY)PHENYL]-2-[4-(2-FLUOROPHENYL)-1-PIPERAZINYL]-N^6,N^6-DIMETHYL-4,6-PYRIMIDINEDIAMINE]
246	Cc1ccc(Nc2cc(N(C)C)nc(N3CCN(c4ccccn4)CC3)n2)cc1NC(C)C [Example 26, N^4-[3-(ISOPROPYLAMINO)-4-METHYLPHENYL]-N^6,N^6-DIMETHYL-2-[4-(2-PYRIDINYL)-1-PIPERAZINYL]-4,6-PYRIMIDINEDIAMINE]
30	C[C@H]1CN(c2nc(Nc3cccc(OCc4ccccc4)c3)cc(N(C)C)n2)C[C@H](C)O1 (racemic) [Example 48, (±)-N^4-[3-(BENZYLOXY)PHENYL]-2-(TRANS-2,6-DIMETHYL MORPHOLINYL)-N^6,N^6-DIMETHYL-4,6-PYRIMIDINEDIAMINE]
